Measured values from US8796327B2, “Method for inhibiting production of cytokines of T helper cell type II and/or inhibiting production of chemokines using brazilin” (China Medical University, priority 2010, dated 2014).

How the values were obtained:
[1] = test system: IL-4; assay: ELISA of IL-4 in supernatant of EL-4 T lymphoma cells; format: cell-based, mouse; conditions: EL-4 cells, no PMA + cAMP
[2] = test system: IL-5; assay: ELISA of IL-5 in bronochial alveolar lavage fluid, mice with asthma (OVA); format: in vivo, BALB/c mice; conditions: for IL-5 concentration (pico-gram/ml): i.p. or i.t., OVA-sensitized BALB/c mice
Procedure: (§1) In Example 2, mice with asthma were used to conduct in vivo experiments, and ovalbumin (OVA) was used as an allergen.
(§2) The mice were sensitized (or challenged) according to the steps shown in FIG. 9 (see Lee et al., Lentiviral-mediated GATA-3 RNAi decreases allergic airway inflammation and hyperresponsiveness. Molecular Therapy, 2008; 16:60-65, which is incorporated herein in its entirety by reference). First, 50 μg OVA (using 2 mg alumina (Alum, Alumlmuject, Pierce Chemical, Rockford, Ill., USA) as an adjuvant) was injected into six to eight-week-old BALB/c female mice (from National Laboratory Animal Center, Taiwan) by intraperitoneal injection (i.p.). At 0th, 14th, and 28th day, the mice were injected with OVA at the same dosage. Before the administration of OVA at the forty-first and the forty-second days, different dosages of brazilin (high dose: 430 μg/mice; low dose: 43 μg/mice) were administrated to the mice by intraperitoneal injection (i.p.) or intratracheal instillation (i.t.). During the fortieth to the forty-second days, 100 μg OVA was dissolved in 40 μl PBS, and was administrated to the mice by intranasal instillation (i.n.) (once everyday, for three days). At the forty-third day, airway hyperresponsiveness of the mice was observed. […]
In Experiment D, after 24 hours from the last administration of OVA into the noses of the mice, the mice were sacrificed, and the blood was collected from the orbital cavities of the mice. […] Cells obtained after the centrifugation were re-suspended in a 1 ml HBSS buffer solution, and the total cell number was counted with a hemocytometer.
The bronochial alveolar lavage fluid collected in Experiment E was centrifuged at 4° C. and with a revolution speed of 400 g for 10 minutes. After the supernatant was collected, the expression of eotaxin, IL-4, IL-5, and IFN-γ was analyzed with an ELISA kit (R&D Systems, Inc., USA). […]

[3] = test system: mice with asthma; assay: Airway (pulmonary) resistance determination, invasive body plethysmography with methacholine; format: in vivo, BALB/c mice; conditions: for pulmonary resistance Rrs (cm H2O/ml): OVA-sensitized BALB/c mice
Procedure: as §1
The mice were sensitized (or challenged) according to the steps shown in FIG. 9 (see Lee et al., Lentiviral-mediated GATA-3 RNAi decreases allergic airway inflammation and hyperresponsiveness. Molecular Therapy, 2008; 16:60-65, which is incorporated herein in its entirety by reference). First, 50 μg OVA (using 2 mg alumina (Alum, Alumlmuject, Pierce Chemical, Rockford, Ill., USA) as an adjuvant) was injected into six to eight-week-old BALB/c female mice (from National Laboratory Animal Center, Taiwan) by intraperitoneal injection (i.p.). At 0th, 14th, and 28th day, the mice were injected with OVA at the same dosage. Before the administration of OVA at the forty-first and the forty-second days, different dosages of brazilin (high dose: 430 μg/mice; low dose: 43 μg/mice) were administrated to the mice by intraperitoneal injection (i.p.) or intratracheal instillation (i.t.). During the fortieth to the forty-second days, 100 μg OVA was dissolved in 40 μl PBS, and was administrated to the mice by intranasal instillation (i.n.) (once everyday, for three days). At the forty-third day, airway hyperresponsiveness of the mice was observed. At the forty-sixth day, the mice were sacrificed and used to conduct the following Experiments E to G During the above procedure, it was observed if any toxicity response arises after the administration of brazilin to the mice. In this experiment, the mice administrated with OVA were used as a positive control, and the mice not administrated with OVA were used as a negative control.
Airway (pulmonary) resistance determination was carried out by conducting invasive body plethysmography according to the Glaab's method (see Glaab et al., Repetitive measurements of pulmonary mechanics to inhaled cholinergic challenge in spontaneously breathing mice. J Appl Physiol, 2004; 97:1104-1111, which is incorporated herein in its entirety by reference). In this method, the increase of pulmonary resistance of mice administrated with methacholine is observed.
First, BALB/c mice were anesthetized with 70 to 90 mg/kg-body weight of pentobarbital sodium (Sigma), and the trachea of the mice were cut to generate a bore, and the mice were subjected to external ventilation (150 breaths/minute) with a ventilator (Harvard Rodent Ventilator, model 683, Southnatick, Mass., USA) controlled by a computer to maintain the tidal volume at 0.3 ml and the terminal expiring positive pressure at 3 to 4 cm-H2O. A PE-50 pipeline was inserted into the gullets and reached to the chest position of the mice, and the pipeline was connected to a pressure transducer (LDS GOULD, Valley View, Ohio, USA), and the pressure, air flow rate, and the variation of air capacity in the lungs of the mice were recorded. Software (Model PNM-PCT100W, LDS PONEMAH Physiology Platform, LDS GOULD) was used to analyze the airway resistance. An atomizer was used to generate methacholine spray, which was then administrated to the mice via the ventilator. The data was obtained by deducting the pulmonary resistance (0.45 cm H2O.s.ml^−1) gained by the pipeline inserted into the trachea of the mice, wherein pulmonary resistance RL ratio=RL after methacholine nebulization/RL after PBS nebulization.

[4] = test system: invasion of inflammatory cells into the lungs; assay: Histopathological examination of H&E stained lung tissue slices, mice with asthma (OVA); format: in vivo; conditions: OVA-sensitized BALB/c mice, result in words
Procedure: as §1, §2

[5] = test system: EL-4 T lymphoma cells; assay: Trypan blue exclusion assay, cell viability; format: cell-based, mouse; conditions: for Cell viability (%): EL-4 cells
Procedure: First, in an incubator containing 5 vol % of CO2 at 37° C., EL-4 mouse T lymphoma cells (commercially available from ATCC, Manassas, Va., America) were cultured in the DMEM culture medium (containing 10 wt % of thermally deactivated FBS), and were sub-cultured at a ratio of 1:3.
Then, at a density of 5×10^5 counts/ml, the T lymphoma cells were bred in a six-well culture dish, and at the 0th minute, brazilin of different concentrations (0.3, 1, 3, 10, or 30 micromole (μM)) was added into the cell culture solution at an amount of 1 μl/ml-cell culture solution. Then, the cells were put into the incubator to be cultured therein. […] During the process of cell culture, the trypan blue exclusion assay was employed to observe effect of the brazilin on the cell viability, results of which are shown in Table 1 and FIG. 1.

Question: `Oc1ccc2c(c1)OC[C@]1(O)Cc3cc(O)c(O)cc3[C@H]21` [brazilin] was tested. Which “Concentration of IL-4 (pico-gram/ml)” value ([1]; brazilin 0.3 μM) did it give?
Answer: Its value is 2.569 ± 0.1160 pico-gram/ml.

Question: And the “Concentration of IL-4 (pico-gram/ml)” value ([1]; brazilin 1 μM)?
Answer: Its value is 5.353 ± 1.276 pico-gram/ml.

Question: And the “Concentration of IL-4 (pico-gram/ml)” value ([1]; brazilin 3 μM)?
Answer: The value was 5.469 ± 0.1160 pico-gram/ml.

Question: What about the “Concentration of IL-4 (pico-gram/ml)” value ([1]; brazilin 10 μM) of the same compound?
Answer: The value was 7.093 ± 0.3480 pico-gram/ml.

Question: And the “Concentration of IL-4 (pico-gram/ml)” value ([1]; brazilin 30 μM)?
Answer: The value was 4.715 ± 0.9859 pico-gram/ml.

Question: What about the “production of IL-5 cytokine” value ([2]; BALB/c mice, result in words) of the same compound?
Answer: The value was “inhibited”.

Question: What about the “IL-5 concentration (pico-gram/ml)” value ([2]; High dose (430 μg/mice)) of the same compound?
Answer: Its value is 52.10 ± 6.223 pico-gram/ml.

Question: What about the “IL-5 concentration (pico-gram/ml)” value ([2]; Low dose (43 μg/mice)) of the same compound?
Answer: The value was 70.65 ± 6.510 pico-gram/ml.

Question: And the “pulmonary resistance Rrs (cm H2O/ml)” value ([3]; methacholine 3.125 mg/ml, High dose (430 μg/mice))?
Answer: Its value is 2.535 ± 0.1251 cm H2O/ml.

Question: What about the “pulmonary resistance Rrs (cm H2O/ml)” value ([3]; methacholine 3.125 mg/ml, Low dose (43 μg/mice)) of the same compound?
Answer: The value was 2.237 ± 0.1567 cm H2O/ml.

Question: What about the “pulmonary resistance Rrs (cm H2O/ml)” value ([3]; methacholine 6.25 mg/ml, High dose (430 μg/mice)) of the same compound?
Answer: Its value is 2.680 ± 0.1676 cm H2O/ml.

Question: And the “pulmonary resistance Rrs (cm H2O/ml)” value ([3]; methacholine 6.25 mg/ml, Low dose (43 μg/mice))?
Answer: The value was 2.206 ± 0.0665 cm H2O/ml.

Question: And the “pulmonary resistance Rrs (cm H2O/ml)” value ([3]; methacholine 12.5 mg/ml, High dose (430 μg/mice))?
Answer: Its value is 3.247 ± 0.1368 cm H2O/ml.

Question: What about the “pulmonary resistance Rrs (cm H2O/ml)” value ([3]; methacholine 12.5 mg/ml, Low dose (43 μg/mice)) of the same compound?
Answer: Its value is 2.432 ± 0.1259 cm H2O/ml.

Question: And the “pulmonary resistance Rrs (cm H2O/ml)” value ([3]; methacholine 25 mg/ml, High dose (430 μg/mice))?
Answer: Its value is 3.691 ± 0.1542 cm H2O/ml.

Question: And the “pulmonary resistance Rrs (cm H2O/ml)” value ([3]; methacholine 25 mg/ml, Low dose (43 μg/mice))?
Answer: The value was 2.869 ± 0.1831 cm H2O/ml.

Question: What about the “airway resistance of the mice” value ([3]; methacholine challenge, BALB/c mice, result in words) of the same compound?
Answer: Its value is “reduced”.

Question: What about the “invasion of inflammatory cells (H&E lung slices, FIG. 11)” value [4] of the same compound?
Answer: Its value is “reduced”.

Question: What about the “effect on the growth of EL-4 T lymphoma cells” value ([5]; 0.3-30 μM, result in words) of the same compound?
Answer: The value was “no effect”.

Question: And the cytotoxicity ([5]; EL-4 T lymphoma cells, 0.3-30 μM, result in words)?
Answer: The cytotoxicity was “no cytotoxicity”.

Question: What about the “Cell viability (%)” value ([5]; brazilin 0.3 μM, no PMA + cAMP) of the same compound?
Answer: The value was 102.8 ± 6.895%.

Question: What about the “Cell viability (%)” value ([5]; brazilin 0.3 μM, with PMA + cAMP) of the same compound?
Answer: Its value is 115.9 ± 6.968%.

Question: And the “Cell viability (%)” value ([5]; brazilin 1 μM, no PMA + cAMP)?
Answer: The value was 106.5 ± 1.190%.

Question: What about the “Cell viability (%)” value ([5]; brazilin 1 μM, with PMA + cAMP) of the same compound?
Answer: Its value is 107.4 ± 3.829%.

Question: And the “Cell viability (%)” value ([5]; brazilin 3 μM, no PMA + cAMP)?
Answer: Its value is 101.5 ± 4.226%.

Question: And the “Cell viability (%)” value ([5]; brazilin 3 μM, with PMA + cAMP)?
Answer: The value was 109.0 ± 3.764%.

Question: What about the “Cell viability (%)” value ([5]; brazilin 10 μM, no PMA + cAMP) of the same compound?
Answer: Its value is 111.5 ± 5.126%.

Question: What about the “Cell viability (%)” value ([5]; brazilin 10 μM, with PMA + cAMP) of the same compound?
Answer: Its value is 100.8 ± 3.257%.

Question: And the “Cell viability (%)” value ([5]; brazilin 30 μM, no PMA + cAMP)?
Answer: The value was 98.17 ± 8.439%.

Question: What about the “Cell viability (%)” value ([5]; brazilin 30 μM, with PMA + cAMP) of the same compound?
Answer: Its value is 104.7 ± 2.495%.
